Reference: patent US10479780B2, “Aminopyrazole derivatives” (Chugai Seiyaku Kabushiki Kaisha, priority 2015, dated 2019)
Like-named read-outs stand apart in the source and are kept apart here.

Assays:
Type in all cases: biochemical
[1] = target: T1, human Lck enzyme (Homo sapiens, UniProt P06239); assay: Lck enzyme inhibitory activity (time-resolved fluorometry, biotinylated peptide phosphorylation); conditions: read-out: LCK_IC50
T1 construct: purchased Carna Biosciences, Inc. 08-170
Summary of the method: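 Readout pairs a europium cryptate-labelled anti-phosphotyrosine antibody with XL665-streptavidin, measured by time-resolved fluorescence. IC50 derived from percent inhibition against untreated controls.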

[2] = target: T2, human Yes1 enzyme (Homo sapiens, UniProt P07947); assay: Yes1 enzyme inhibitory activity (time-resolved fluorometry, biotinylated peptide phosphorylation); conditions: read-out: YES_IC50
T2 construct: made in house
T2 sequence (P07947 whole entry): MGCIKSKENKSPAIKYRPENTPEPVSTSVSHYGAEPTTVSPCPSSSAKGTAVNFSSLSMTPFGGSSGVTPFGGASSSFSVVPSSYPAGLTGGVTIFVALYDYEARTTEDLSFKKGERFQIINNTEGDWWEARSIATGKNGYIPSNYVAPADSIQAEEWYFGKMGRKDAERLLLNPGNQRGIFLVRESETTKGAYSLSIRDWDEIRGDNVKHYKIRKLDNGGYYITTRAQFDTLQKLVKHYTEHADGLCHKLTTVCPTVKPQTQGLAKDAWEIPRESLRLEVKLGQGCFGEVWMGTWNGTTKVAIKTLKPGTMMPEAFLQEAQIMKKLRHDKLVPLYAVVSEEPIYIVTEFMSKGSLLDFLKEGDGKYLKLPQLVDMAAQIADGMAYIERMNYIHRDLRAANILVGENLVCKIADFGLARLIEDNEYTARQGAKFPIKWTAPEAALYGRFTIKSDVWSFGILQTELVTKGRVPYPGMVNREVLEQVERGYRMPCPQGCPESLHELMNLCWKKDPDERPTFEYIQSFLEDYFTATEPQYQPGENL
Summary of the method: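 Inhibition was expressed against a compound-free control to give IC50, using TR-FRET read-out (Eu-cryptate anti-pTyr antibody, streptavidin-XL665).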

[3] = target: T3, human Src enzyme (Homo sapiens, UniProt P12931); assay: Src enzyme inhibitory activity (time-resolved fluorometry, biotinylated peptide phosphorylation); conditions: read-out: SRC_IC50
T3 construct: purchased Carna Biosciences, Inc. 08-173
T3 sequence (P12931 whole entry): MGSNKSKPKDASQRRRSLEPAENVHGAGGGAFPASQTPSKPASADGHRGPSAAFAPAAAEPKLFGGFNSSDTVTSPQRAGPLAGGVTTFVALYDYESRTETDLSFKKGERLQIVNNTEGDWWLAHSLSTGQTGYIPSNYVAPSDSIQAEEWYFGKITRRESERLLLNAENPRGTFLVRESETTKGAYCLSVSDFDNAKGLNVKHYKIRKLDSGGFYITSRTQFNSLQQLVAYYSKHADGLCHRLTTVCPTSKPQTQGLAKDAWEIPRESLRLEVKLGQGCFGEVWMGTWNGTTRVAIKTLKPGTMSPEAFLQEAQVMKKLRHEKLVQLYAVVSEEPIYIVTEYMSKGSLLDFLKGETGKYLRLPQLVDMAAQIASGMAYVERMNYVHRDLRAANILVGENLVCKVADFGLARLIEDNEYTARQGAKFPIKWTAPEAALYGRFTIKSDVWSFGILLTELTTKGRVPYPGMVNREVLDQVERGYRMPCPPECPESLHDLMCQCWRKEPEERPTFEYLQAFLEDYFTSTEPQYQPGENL
Summary of the method: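 Compounds were tested for blocking tyrosine phosphorylation of a biotinylated peptide substrate by recombinant human Src. Phosphorylated product was quantified by time-resolved fluorometry using europium cryptate and XL665 conjugates, and IC50 was calculated against the compound-free control.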

[4] = biotinylated peptide phosphorylation

T1 sequence (P06239 whole entry): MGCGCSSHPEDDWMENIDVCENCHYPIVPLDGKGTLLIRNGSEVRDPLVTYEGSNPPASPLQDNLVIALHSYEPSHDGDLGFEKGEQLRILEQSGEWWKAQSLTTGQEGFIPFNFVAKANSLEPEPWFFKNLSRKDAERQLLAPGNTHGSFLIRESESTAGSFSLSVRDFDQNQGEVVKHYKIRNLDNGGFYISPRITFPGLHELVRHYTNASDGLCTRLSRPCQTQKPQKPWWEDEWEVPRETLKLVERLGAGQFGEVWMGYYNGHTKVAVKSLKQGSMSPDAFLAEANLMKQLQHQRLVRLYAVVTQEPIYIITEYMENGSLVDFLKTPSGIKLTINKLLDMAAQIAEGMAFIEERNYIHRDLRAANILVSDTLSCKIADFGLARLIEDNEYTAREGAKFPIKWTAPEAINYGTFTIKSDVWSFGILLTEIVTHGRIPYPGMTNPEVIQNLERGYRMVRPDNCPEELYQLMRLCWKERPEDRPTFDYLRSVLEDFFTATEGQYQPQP

IC50 [1, 4] | IC50 [2, 4] | IC50 [3, 4] | IC50 [1] | IC50 [2] | IC50 [3] | SMILES
0.036 µM | 0.0036 µM | 0.11 µM | – | – | – | Cc1cc(Oc2ccccc2F)ccc1-n1ncc(C(=O)c2cc3cc(OC(F)F)c(NS(=O)(=O)C4CC4)cc3[nH]2)c1N [Example 4-24-001, N-[2-[5-amino-1-[4-(2-fluorophenoxy)-2-methylphenyl]pyrazole-4-carbonyl]-5-(difluoromethoxy)-1H-indol-6-yl]cyclopropanesulfonamide]
0.0025 µM | 0.00039 µM | 0.015 µM | – | – | – | Cc1cc(Oc2cccc(F)c2F)ccc1-n1ncc(C(=O)c2cc3cc(NS(C)(=O)=O)c(F)cc3[nH]2)c1N [Example 4-2-098, N-[2-[5-amino-1-[4-(2,3-difluorophenoxy)-2-methylphenyl]pyrazole-4-carbonyl]-6-fluoro-1H-indol-5-yl]methanesulfonamide]
– | – | – | 0.067 µM | 0.0017 µM | 0.19 µM | Cc1cc(-n2ncc(C(=O)c3cc4cc(OC5CCN(C(C)C)CC5)c(Cl)cc4[nH]3)c2N)ccc1Oc1ccccc1F [Example 5-1-196, [5-amino-1-[4-(2-fluorophenoxy)-3-methylphenyl]pyrazol-4-yl]-[6-chloro-5-(1-propan-2-ylpiperidin-4-yl)oxy-1H-indol-2-yl] methanone]
0.057 µM | 0.003 µM | 0.32 µM | – | – | – | Cc1cc(Oc2ccccc2F)ccc1-n1ncc(C(=O)c2cc3cc(F)c(NS(=O)(=O)c4cccc(C#N)n4)cc3[nH]2)c1N [Example 5-1-537, N-[2-[5-amino-1-[4-(2-fluorophenoxy)-2-methylphenyl]pyrazole-4-carbonyl]-5-fluoro-1H-indol-6-yl]-6-cyanopyridine-2-sulfonamide]
– | – | – | 0.025 µM | 0.0018 µM | 0.023 µM | CC(=O)N1CCC(c2cc3[nH]c(C(=O)c4cnn(-c5cnc(Oc6c(F)cccc6F)cc5C)c4N)cc3cc2C)CC1 [Example 5-1-139, 1-[4-[2-[5-amino-1-[6-(2,6-difluorophenoxy)-4-methylpyridin-3-yl]pyrazole-4-carbonyl]-5-methyl-1H-indol-6-yl]piperidin-1-yl]ethanone]
0.022 µM | 0.0018 µM | 0.034 µM | – | – | – | Cc1cc(Oc2ccccc2F)ccc1-n1ncc(C(=O)c2cc3cc(F)c(NS(=O)(=O)NC4CC4)cc3[nH]2)c1N [Example 4-5-010, [5-amino-1-[4-(2-fluorophenoxy)-2-methylphenyl]pyrazol-4-yl]-[6-(cyclopropylsulfamoylamino)-5-fluoro-1H-indol-2-yl]methanone]
– | – | – | 0.02 µM | 0.018 µM | 0.033 µM | Cc1cc(Oc2c(F)cccc2F)ncc1-n1ncc(C(=O)c2cc3cc(OCC(F)F)c(C4CCN(C(=O)OC(C)(C)C)CC4)cc3[nH]2)c1N [Example 5-1-069, tert-Butyl 4-[2-[5-amino-1-[6-(2,6-difluorophenoxy)-4-methylpyridin-3-yl]pyrazole-4-carbonyl]-5-(2,2-difluoroethoxy)-1H-indol-6-yl]piperidine-1-carboxylate]
0.0092 µM | 0.0035 µM | 0.022 µM | – | – | – | Cc1cc(Oc2c(F)cccc2F)ncc1-n1ncc(C(=O)c2cc3cc(OC(F)F)c(NC4COC4)cc3[nH]2)c1N [Example 4-23-014, [5-amino-1-[6-(2,6-difluorophenoxy)-4-methylpyridin-3-yl]pyrazol-4-yl]-[5-(difluoromethoxy)-6-(oxetan-3-ylamino)-1H-indol-2-yl]methanone]
– | – | – | 0.029 µM | 0.0013 µM | 0.041 µM | COc1cc2cc(C(=O)c3cnn(-c4c(C)cc(Oc5ccccc5F)cc4F)c3N)[nH]c2cc1NS(=O)(=O)CC(=O)NC(C)C [Example 5-1-137, 2-[[2-[5-amino-1-[2-fluoro-4-(2-fluorophenoxy)-6-methylphenyl]pyrazole-4-carbonyl]-5-methoxy-1H-indol-6-yl]sulfamoyl]-N-propan-2-ylacetamide]
0.024 µM | 0.0043 µM | 0.092 µM | – | – | – | Cc1cc(Oc2cccc(F)c2F)cc(F)c1-n1ncc(C(=O)c2cc3cc(F)c(N)cc3[nH]2)c1N [Example 4-3-001, {5-amino-1-[4-(2,3-difluorophenoxy)-2-fluoro-6-methylphenyl]pyrazol-4-yl}-(6-amino-5-fluoro-1H-indol-2-yl)methanone]
0.0021 µM | 0.00044 µM | 0.013 µM | – | – | – | Cc1cc(Oc2ccccc2F)ccc1-n1ncc(C(=O)c2cc3cc(F)c(N4C(=O)N[C@@H](CO)C4=O)cc3[nH]2)c1N [Example 5-1-446, (5S)-3-[2-[5-amino-1-[4-(2-fluorophenoxy)-2-methylphenyl]pyrazole-4-carbonyl]-5-fluoro-1H-indol-6-yl]-5-(hydroxymethyl)imidazolidine-2,4-dione]
0.004 µM | 0.00073 µM | 0.016 µM | – | – | – | Cc1cc2cc(C(=O)c3cnn(-c4ccc(Oc5ccccc5F)cc4C)c3N)[nH]c2cc1N1C(=O)[C@@H]2CCCN2C1=O [Example 5-1-458, (7aS)-2-[2-[5-amino-1-[4-(2-fluorophenoxy)-2-methylphenyl]pyrazole-4-carbonyl]-5-methyl-1H-indol-6-yl]-5,6,7,7a-tetrahydropyrrolo[1,2-c]imidazole-1,3-dione]
0.14 µM | 0.004 µM | 0.92 µM | – | – | – | Cc1cc2cc(C(=O)c3cnn(-c4cnc(Oc5ccccc5F)cc4C)c3N)[nH]c2cc1NS(=O)(=O)c1cccc(Cl)n1 [Example 5-1-508, N-[2-[5-amino-1-[6-(2-fluorophenoxy)-4-methylpyridin-3-yl]pyrazole-4-carbonyl]-5-methyl-1H-indol-6-yl]-6-chloropyridine-2-sulfonamide]
– | – | – | 0.077 µM | 0.0027 µM | 0.21 µM | Cc1cc2cc(C(=O)c3cnn(-c4c(C)cc(Oc5cccc(F)c5F)cc4F)c3N)[nH]c2cc1NS(=O)(=O)N1CCOCC1 [Example 5-1-066, N-[2-[5-amino-1-[4-(2,3-difluorophenoxy)-2-fluoro-6-methylphenyl]pyrazole-4-carbonyl]-5-methyl-1H-indol-6-yl]morpholine-4-sulfonamide]
– | – | – | 0.0016 µM | 0.00051 µM | 0.0052 µM | Cc1cc(Oc2ccccc2F)ccc1-n1ncc(C(=O)c2cc3cc(N4CCOCC4)c(-n4c(C)cc(=O)[nH]c4=O)cc3[nH]2)c1N [Example 5-1-116, 1-[2-[5-amino-1-[4-(2-fluorophenoxy)-2-methylphenyl]pyrazole-4-carbonyl]-5-morpholin-4-yl-1H-indol-6-yl]-6-methylpyrimidine-2,4-dione]
– | – | – | 0.17 µM | 0.0065 µM | 0.61 µM | COc1ccc(Cl)c(S(=O)(=O)Nc2cc3[nH]c(C(=O)c4cnn(-c5cnc(Oc6c(F)cccc6F)cc5C)c4N)cc3cc2OCC(F)F)c1 [Example 5-1-301, N-[2-[5-amino-1-[6-(2,6-difluorophenoxy)-4-methylpyridin-3-yl]pyrazole-4-carbonyl]-5-(2,2-difluoroethoxy)-1H-indol-6-yl]-2-chloro-5-methoxybenzenesulfonamide]
– | – | – | 0.0047 µM | 0.00097 µM | 0.0079 µM | Cc1cc(Oc2c(F)cccc2F)ncc1-n1ncc(C(=O)c2cc3cc(OC4CCN(C(C)C)CC4)c(C4CCOCC4)cc3[nH]2)c1N [Example 5-1-248, [5-amino-1-[6-(2,6-difluorophenoxy)-4-methylpyridin-3-yl]pyrazol-4-yl]-[6-(oxan-4-yl)-5-(1-propan-2-ylpiperidin-4-yl)oxy-1H-indol-2-yl]methanone]
– | – | – | 0.013 µM | 0.008 µM | 0.097 µM | Cc1cc(Oc2ccccc2F)ccc1-n1ncc(C(=O)c2cc3cc(OCC(F)F)c(N4C(=O)NC5(CCN(Cc6ccccc6)C5)C4=O)cc3[nH]2)c1N (stereo not drawn) [Example 5-1-355, 3-[2-[5-amino-1-[4-(2-fluorophenoxy)-2-methylphenyl]pyrazole-4-carbonyl]-5-(2,2-difluoroethoxy)-1H-indol-6-yl]-7-benzyl-1,3,7-triazaspiro[4.4]nonane-2,4-dione]
– | – | – | 0.029 µM | 0.0028 µM | 0.083 µM | Cc1cc2cc(C(=O)c3cnn(-c4ccc(Oc5ncccc5Cl)cc4Cl)c3N)[nH]c2cc1NS(=O)(=O)CCCF [Example 5-1-063, N-[2-[5-amino-1-[2-chloro-4-(3-chloropyridin-2-yl)oxyphenyl]pyrazole-4-carbonyl]-5-methyl-1H-indol-6-yl]-3-fluoropropane-1-sulfonamide]
– | – | – | 0.085 µM | 0.0029 µM | 0.43 µM | Cc1cc(-n2ncc(C(=O)c3cc4cc(OC5CCN(C6CCC6)CC5)c(Cl)cc4[nH]3)c2N)ccc1Oc1ccccc1F [Example 5-1-235, [5-amino-1-[4-(2-fluorophenoxy)-3-methylphenyl]pyrazol-4-yl]-[6-chloro-5-(1-cyclobutylpiperidin-4-yl)oxy-1H-indol-2-yl] methanone]
0.017 µM | 0.003 µM | 0.1 µM | – | – | – | Cc1cc(Oc2ccccc2F)ccc1-n1ncc(C(=O)c2cc3cc(F)c(N4C(=O)NC(C)(C(F)(F)F)C4=O)cc3[nH]2)c1N (stereo not drawn) [Example 5-1-412, 3-[2-[5-amino-1-[4-(2-fluorophenoxy)-2-methylphenyl]pyrazole-4-carbonyl]-5-fluoro-1H-indol-6-yl]-5-methyl-5-(trifluoromethyl) imidazolidine-2,4-dione]
0.19 µM | 0.0048 µM | 0.57 µM | – | – | – | Cc1cc2cc(C(=O)c3cnn(-c4cnc(Oc5ccccc5F)cc4C)c3N)[nH]c2cc1NS(=O)(=O)c1c(F)cc(F)cc1F [Example 5-1-501, N-[2-[5-amino-1-[6-(2-fluorophenoxy)-4-methylpyridin-3-yl]pyrazole-4-carbonyl]-5-methyl-1H-indol-6-yl]-2,4,6-trifluorobenzenesulfonamide]
